Data reported in PMC10629583, “Specific inhibition of an anticancer target, polo-like kinase 1, by allosterically dismantling its mechanism of substrate recognition” (Proceedings of the National Academy of Sciences of the …, 2023).
Entries after “also recorded” stand apart in the source; their conditions may differ. Like-named read-outs stand apart in the source and are kept apart here. Each block holds one compound with its values, some of them ahead of it. Where no end group is shown, it is not given here. [ ]: non-standard residue; d: D form. pT = C[C@@H](OP(=O)(O)O)[C@H](N)C(=O)O

Columns and labels:
[1] = Conversion of Allopole to Allopole-A in buffers ± GSH (LC-MS); type: physicochemical; conditions: 100 µM Allopole, room temperature, 1 h
Description: High-performance liquid chromatography (HPLC)/high-resolution mass spectrometry was used to determine the products derived from investigational drugs incubated under various conditions by measuring their exact masses. Thereafter, 20 μL aliquots of several drug preparations in either DMSO or aqueous reaction solutions were diluted 2:1 in ethanol, followed by centrifugation at 15,000 × g for 5 min. The supernatant was then injected on a Thermo Vanquish liquid chromatograph coupled to a Thermo Q Exactive Orbitrap mass spectrometer (Thermo Fisher Scientific). The conditions for the analysis are listed as follows.
The analytes were identified using the Dmass between the predicted and measured exact monoisotopic mass for the protonated molecular ions applied to the empirical formula algorithm in the Qual Browser application of the Xcalibur software (Themo Scientific). Selected ions from the base peak chromatogram were extracted for integration of peak areas. The relative amounts of each analyte to the sum total were calculated to estimate conversion of and prodrug under the specific conditions to breakdown products.
Table S2. Conversion of Allopole to Allopole-A under various buffer conditions, room
Buffers* Compounds detected
Allopole-A Allopole-A (-S) Allopole (-Cl) Allopole
* Buffer #1: 20 mM Tris (pH 8.0), 50 mM NaCl, 1 mM EDTA, 1% DMSO
Buffer #2: 1 x PBS (pH 7.4), 1 mM EDTA, 1% DMSO
Buffer #3: 20 mM HEPES (pH 7.0), 50 mM NaCl, 1 mM EDTA, 1% DMSO
Samples were prepared by incubating 100 µM of Allopole in the indicated buffer conditions in the
absence or presence of 5 mM GSH for 1 h at room temperature. Note that in the absence of GSH,

[2] = molecular target: T1, full-length Plk1 (Homo sapiens, UniProt P53350); conditions: total lysates from HEK293A cells expressing full-length Plk1; ref Park, J.E., et al. (1); read-out: Anti-Plk1 (full length) ELISA (IC50) Mean ± SEM; cited from earlier work
T1 construct: expressed in transfected cells; host or cells: HEK293A cells infected with adenovirus; total lysate

[3] = molecular target: T2, Plk2 PBD (PBD2) (Homo sapiens, UniProt Q9NYY3); assay: FP-based inhibition assay, PBD2; type: binding; conditions: bacterially expressed purified PBD, FITC-ligand 15 nM, PBD at EC85
T2 construct: Purification of PBD2-His (355–685) (pKM3358) and its S652F mutant (pKM7980); His (C); made in house; host or cells: bacteria (E. coli)
T2 sequence (Q9NYY3 355-685): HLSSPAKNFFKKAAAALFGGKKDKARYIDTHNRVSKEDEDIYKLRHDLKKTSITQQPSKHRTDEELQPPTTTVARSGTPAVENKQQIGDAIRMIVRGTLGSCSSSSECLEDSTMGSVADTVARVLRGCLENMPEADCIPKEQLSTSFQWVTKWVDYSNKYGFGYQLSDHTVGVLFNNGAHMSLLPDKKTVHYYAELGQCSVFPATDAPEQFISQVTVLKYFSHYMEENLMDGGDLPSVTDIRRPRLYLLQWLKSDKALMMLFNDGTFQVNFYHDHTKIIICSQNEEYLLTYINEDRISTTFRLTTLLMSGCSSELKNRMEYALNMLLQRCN
Description: (§1) FP assays were carried out essentially as described previously ([35], [36]). […] All the samples were analyzed approximately 30 min after reaction in a 384-well format using the SpectraMax Paradigm multimode microplate detection platform (Molecular Devices). Data were analyzed after carrying out at least three independent experiments using GraphPad Prism software version 8.

[4] = molecular target: T3, Plk3 PBD (PBD3) (Homo sapiens, UniProt Q9H4B4); assay: FP-based inhibition assay, PBD3; type: binding; conditions: bacterially expressed purified PBD, FITC-ligand 15 nM, PBD at EC85
T3 construct: MBP-PBD3-His (335–646) (pKM3359) and its A612F (pKM7981); His (C); made in house; host or cells: bacteria (E. coli)
T3 sequence (Q9H4B4 335-646): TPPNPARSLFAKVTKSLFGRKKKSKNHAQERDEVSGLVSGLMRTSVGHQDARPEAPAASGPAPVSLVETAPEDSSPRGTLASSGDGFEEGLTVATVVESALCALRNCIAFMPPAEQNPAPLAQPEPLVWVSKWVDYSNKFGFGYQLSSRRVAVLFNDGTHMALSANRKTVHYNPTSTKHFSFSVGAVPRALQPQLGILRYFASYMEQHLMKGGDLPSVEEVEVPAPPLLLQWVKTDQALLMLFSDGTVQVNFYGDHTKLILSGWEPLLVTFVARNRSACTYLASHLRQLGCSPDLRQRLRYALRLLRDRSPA
Description: FP assays were carried out essentially as described previously ([35], [36]). FITC-conjugated ligands (15 nM) were mixed with PBDs at their EC85 concentrations. All the samples were analyzed approximately 30 min after reaction in a 384-well format using the SpectraMax Paradigm multimode microplate detection platform (Molecular Devices). Data were analyzed after carrying out at least three independent experiments using GraphPad Prism software version 8.

[5] = Solubility in PBS (imaging of insoluble particles, dynamic light scattering); type: physicochemical; conditions: PBS buffer (pH 7.4)
Description: All samples were analyzed after adjusting the concentration to 100 μM solution in the PBS buffer (pH 7.4) containing 1% DMSO. The measurements were carried out at 25 °C using the DynaPro NanoStar system (Wyatt Technology). The intensity of the scattered light was measured as a function of time, and the resulting data were used to calculate the size and distribution of the particles in the sample. Collected data were analyzed using the DYNAMICS software to calculate the mean size and polydispersity index of the particles in the sample. At least three repeat measurements were performed to ensure that the results were accurate and reproducible.
Fig. S1. Solubility and activity of Allopole and its related compounds. (A) Images showing insoluble
particles of 200 µM of the indicated compounds dissolved in the PBS buffer. The aggregates of […]

[6] = molecular target: T4, Plk1 PBD (PBD1) (Homo sapiens, UniProt P53350); assay: FP-based inhibition assay, PBD1; type: binding; conditions: FP, bacterially expressed purified PBD, FITC-ligand 15 nM, PBD at EC85; read-out: PBD1 IC50 ± SD
T4 construct: constructs expressing PBD1 (residues 345–603) WT (pKM7650); His; TEV site (N); made in house; host or cells: bacteria (E. coli)
Description: as §1

[7] = tested on: L363 cells; set-up: method as in Park, J.E., et al. (1); conditions: MTS, 48 h treatment, ref Park, J.E., et al. (1), cited from earlier work
[8] = molecular target: T1, full-length Plk1; assay: ELISA-based PBD1-binding inhibition assay; conditions: total lysates from HEK293A cells expressing full-length Plk1; biotinylated PBIP1 p-T78 peptide; read-out: Anti-Plk1 (full length) ELISA (IC50) Mean ± SEM
[9] = tested on: L363 cells; assay: MTS cell viability assay, L363 cells; type: cell-based; conditions: 48 h treatment, read-out: Cell efficacy (GI50) Mean ± SD
[10] = molecular target: T5, human His-Plk1 (Homo sapiens, UniProt P53350); assay: In vitro Plk1 kinase assay (casein, 32P); type: biochemical; conditions: casein substrate
T5 construct: His (N); purchased Sino Biological; host or cells: Sf9
Description: Kinase reactions were carried out in two steps. First, Sf9-purified 0.2 µg of human His-Plk1 (Sino Biological) was preincubated in a kinase cocktail [50 mM Tris-Cl (pH 7.5), 10 mM MgCl2, 2 mM dithiothreitol, 2 mM EGTA, and 27 mM p-nitrophenylphosphate] in the presence of either Allopole-A or p-13mer PBIP peptide for 20 min at 25 °C. The samples were then added with 1 µg of dephosphorylated casein (Sigma) and 1.25 µM of ATP (1.25 µCi of [γ^32P] ATP, 1Ci = 37 GBq) and reacted for additional 30 min at 30 °C. The reactions were terminated by the addition of 5× Laemmli SDS sample buffer, separated by 10% SDS-PAGE, and analyzed by autoradiography. To quantify the γ^32P signals, appropriate bands were excised from dried SDS-PAGE gels and analyzed by a liquid scintillation counter (Beckman model LS 6500).

[11] = Buffer #1 (20 mM Tris pH 8.0), no GSH
[12] = Buffer #2 (1 x PBS pH 7.4), no GSH
[13] = Buffer #3 (20 mM HEPES pH 7.0), no GSH

T1 sequence (P53350 whole entry): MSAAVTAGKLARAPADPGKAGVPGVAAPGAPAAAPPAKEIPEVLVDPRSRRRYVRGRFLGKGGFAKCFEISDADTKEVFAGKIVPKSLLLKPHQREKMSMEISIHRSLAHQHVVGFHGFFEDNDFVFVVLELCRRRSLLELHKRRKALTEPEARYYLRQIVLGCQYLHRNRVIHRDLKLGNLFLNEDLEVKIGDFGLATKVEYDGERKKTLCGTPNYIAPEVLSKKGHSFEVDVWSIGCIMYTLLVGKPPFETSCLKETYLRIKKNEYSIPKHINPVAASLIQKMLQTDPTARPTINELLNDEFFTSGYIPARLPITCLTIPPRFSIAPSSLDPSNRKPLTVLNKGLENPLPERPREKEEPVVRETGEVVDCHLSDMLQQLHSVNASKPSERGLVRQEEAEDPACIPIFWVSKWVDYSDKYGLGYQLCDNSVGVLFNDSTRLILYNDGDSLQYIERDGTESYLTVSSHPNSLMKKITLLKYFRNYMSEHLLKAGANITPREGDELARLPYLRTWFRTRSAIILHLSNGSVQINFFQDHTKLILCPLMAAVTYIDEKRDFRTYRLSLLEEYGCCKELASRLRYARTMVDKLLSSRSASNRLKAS
T4 sequence (P53350 345-603): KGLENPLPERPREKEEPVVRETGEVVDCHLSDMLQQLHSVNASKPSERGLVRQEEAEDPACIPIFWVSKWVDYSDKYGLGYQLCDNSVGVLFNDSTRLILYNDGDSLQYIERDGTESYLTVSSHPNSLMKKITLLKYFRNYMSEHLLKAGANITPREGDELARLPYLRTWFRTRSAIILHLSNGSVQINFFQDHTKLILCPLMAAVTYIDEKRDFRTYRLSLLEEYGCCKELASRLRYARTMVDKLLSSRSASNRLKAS
T5 sequence (P53350 whole entry): as the sequence (P53350 whole entry) above

Compounds detected [1, 11]: 0.0 µmol/L
Compounds detected, % of total [1, 11]: 0.0%
Compounds detected, pk area [1, 11]: 4.85E+04
Compounds detected ([1]; Buffer #1 + 5 mM GSH): 0.5 µmol/L
Compounds detected, % of total ([1]; Buffer #1 + 5 mM GSH): 0.5%
Compounds detected, pk area ([1]; Buffer #1 + 5 mM GSH): 6.89E+06
Compounds detected [1, 12]: 0.0 µmol/L
Compounds detected, % of total [1, 12]: 0.0%
Compounds detected, pk area [1, 12]: 2.42E+04
Compounds detected ([1]; Buffer #2 + 5 mM GSH): 0.3 µmol/L
Compounds detected, % of total ([1]; Buffer #2 + 5 mM GSH): 0.3%
Compounds detected, pk area ([1]; Buffer #2 + 5 mM GSH): 2.57E+06
Compounds detected [1, 13]: 0.0 µmol/L
Compounds detected, % of total [1, 13]: 0.0%
Compounds detected, pk area [1, 13]: 0.00E+00
Compounds detected ([1]; Buffer #3 + 5 mM GSH): 0.4 µmol/L
Compounds detected, % of total ([1]; Buffer #3 + 5 mM GSH): 0.4%
Compounds detected, pk area ([1]; Buffer #3 + 5 mM GSH): 1.11E+06
Compound: Cn1cnc([N+](=O)[O-])c1Sc1nnc2n(CC3CC3)c(=O)c3sccc3n12 [Allopole (-Cl)]

PBD2 IC50 ± SD [3]: N. S.
PBD3 IC50 ± SD [4]: N. S.
Solubility (in words) [5]: lower-than-acceptable solubility
IC50 [6]: 0.0102 µM
Compound: CCCn1c(=O)c2sc(C)cc2n2c(=S)[nH]nc12 [compound 3]
IC50 [2]: 2.15 µM
Cell efficacy (GI50) Mean ± SD [7]: failed to induce any significant antiproliferation effect; also recorded: N. S

Compound: CCCn1c(=O)c2sc(C)cc2n2c(Sc3c([N+](=O)[O-])ncn3C)nnc12 [compound 4]
IC50 [2]: > 50 µM
Solubility (in words) [5]: lower-than-acceptable solubility; also recorded: low solubility
GI50 ([7]; read-out: Cell efficacy (GI50) Mean ± SD): 4.88 ± 0.1 µM

IC50 [8]: > 50 µM
Compound: CCCn1c(=O)c2oc3ccccc3c2n2c(Sc3c([N+](=O)[O-])ncn3C)nnc12 [compound 8]
GI50 [9]: 8.31 ± 0.56 µM

IC50 [8]: > 50 µM
Compound: CCCn1c(=O)c2oc3cccc(F)c3c2n2c(Sc3c([N+](=O)[O-])ncn3C)nnc12 [compound 10]
GI50 [9]: 7.53 ± 0.43 µM

IC50 [8]: > 50 µM
Solubility (in words) [5]: moderately; also recorded: moderate
Compound: CCCn1c(=O)c2sccc2n2c(Sc3c([N+](=O)[O-])ncn3C)nnc12 [compound 12]
GI50 [9]: 8.4 ± 0.74 µM

IC50 [8]: > 50 µM
Compound: CCCn1c(=O)c2sc(Cl)cc2n2c(Sc3c([N+](=O)[O-])ncn3C)nnc12 [compound 14]
GI50 [9]: 6.04 ± 0.17 µM

IC50 [8]: > 50 µM
Solubility (in words) [5]: moderately; also recorded: moderate
Compound: CCCn1c(=O)c2sc(C(C)(C)C)cc2n2c(Sc3c([N+](=O)[O-])ncn3C)nnc12 [compound 16]
GI50 [9]: 4.19 ± 0.15 µM

IC50 [8]: > 50 µM
Compound: CCCn1c(=O)c2sc3ccccc3c2n2c(Sc3c([N+](=O)[O-])ncn3C)nnc12 [compound 18]
GI50 [9]: 7.05 ± 0.27 µM

Effect on His-Plk1 kinase activity in vitro (in words) [10]: increased it
Compound: CETFDPPLHSpTAI (CETFDPPLHS[pT]AI) [p-13mer, phospho-13mer ligand derived from the PBIP1 p-T78 motif, reference compound]
